PubChem BioAssay (NCI)
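Results reflect a 48-hour exposure of cells in 96-well plates to compound at five concentrations. GI50 = concentration required for 50% inhibition of growth. TGI: total growth inhibition.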

What was measured:
Test in all cases: NCI anticancer screen, dose series, 48 h
ACHN renal = test system: ACHN renal
COLO 205 colon = test system: COLO 205 colon
EKVX NSCLC = test system: EKVX NSCLC
HT29 colon = test system: HT29 colon
KM12 colon = test system: KM12 colon
MDA-MB-435 = test system: MDA-MB-435
SF-268 CNS = test system: SF-268 CNS
SNB-19 CNS = test system: SNB-19 CNS
T-47D breast = test system: T-47D breast
UACC-62 melanoma = test system: UACC-62 melanoma

Structure (SMILES) | TGI (ACHN renal) [µM] | TGI (COLO 205 colon) [µM] | TGI (EKVX NSCLC) [µM] | TGI (HT29 colon) [µM] | TGI (KM12 colon) [µM] | TGI (MDA-MB-435) [µM] | TGI (SF-268 CNS) [µM] | TGI (SNB-19 CNS) [µM] | TGI (T-47D breast) [µM] | TGI (UACC-62 melanoma) [µM] | GI50 (COLO 205 colon) [µM] | GI50 (HT29 colon) [µM] | GI50 (KM12 colon) [µM] | GI50 (MDA-MB-435) [µM] | GI50 (SF-268 CNS) [µM] | GI50 (SNB-19 CNS) [µM] | GI50 (T-47D breast) [µM] | GI50 (UACC-62 melanoma) [µM]
COc1ccc2c(c1)/c(=C/C#N)c1c3ccccc3[n+](C)n21 | 32 | 8.33 | 16.5 | 10.6 | 17.9 | 19.3 | 30.5 | 51.5 | 10.6 | 42.3 | – | – | – | – | – | – | – | –
COc1ccc([I+]c2ccc(OC)cc2)cc1 | > 100 | > 100 | > 100 | > 100 | > 100 | > 100 | > 100 | > 100 | > 100 | > 100 | 9.34 | 5.54 | 6.63 | 14.7 | 12.6 | 20.9 | 13.5 | 29.9
O=c1[nH]c(=O)n(C2CC(O)C(CO)O2)cc1Br (stereo not drawn) | > 100 | > 100 | > 100 | > 100 | > 100 | > 100 | > 100 | > 100 | > 100 | > 100 | – | – | – | – | – | – | – | –
C/C(=N\NC(N)=S)c1nc2ncccc2[nH]1 | > 100 | > 100 | > 100 | > 100 | > 100 | > 100 | > 100 | > 100 | > 100 | > 100 | – | – | – | – | – | – | – | –
Fc1ccc(C(OCCN2CCC3CCC(C2)N3C/C=C/c2cccs2)c2ccc(F)cc2)cc1 (stereo not drawn) | 24.1 | 12.2 | 16.5 | 15.4 | 19.7 | 20.5 | 24.6 | 27.9 | 15.5 | 23.7 | – | – | – | – | – | – | – | –
Cc1cc(C)n(-c2nc(C)c(CCO)c(=O)[nH]2)n1 | > 100 | > 100 | > 100 | > 100 | > 100 | > 100 | > 100 | > 100 | > 100 | > 100 | – | – | – | – | – | – | – | –
COc1cc(/C=C/C(=N\NC(N)=S)c2sc(NNC(C)=O)nc2C)ccc1O | > 100 | > 100 | > 100 | > 100 | > 100 | > 100 | > 100 | > 100 | > 100 | > 100 | – | – | – | – | – | – | – | –
O=S(=O)(/N=C(\NO)Nc1ccc(Cl)cc1)c1cc2ccccc2s1 | 30.5 | 29.6 | 26 | 35 | 57.2 | 36.9 | 29.2 | 31.2 | 84.2 | 29.3 | – | – | – | – | – | – | – | –
CCOC(=O)N1CCC2(CC1)C[C@@](C(C)=O)(c1ccccc1)C(C)O2 (stereo partly drawn) | > 100 | > 100 | > 100 | > 100 | > 100 | > 100 | > 100 | > 100 | 91.4 | > 100 | – | – | – | – | – | – | – | –
